Assay results published in patent publication US20110306579A1, “METHODS OF NEUROPROTECTION USING NEUROPROTECTIVE STEROIDS AND A VITAMIN D” (EMORY UNIVERSITY, priority 2009, published 2011).

Assays:
[1] = tested on: E18 rat primary cortical neurons; experiment: Glutamate-induced excitotoxic cell death (LDH release and MTT reduction assays); assay type: cell-based
From the text: Lactate dehydrogenase (LDH) release and 3-(4,5-dimethylthiazol-2-yl)-2,5-diphenyltetrazolium bromide (MTT) reduction assays were used to measure cell death. NeuroPureTM E18 primary rat cortical cells were commercially procured (Catalogue # N200200, Genlantis, San Diego, Calif., USA) as micro-surgically dissected regions from day 18 embryonic Sprague-Dawley rat brain. The tissues were processed for culturing according to manufacturer specifications. Briefly, enzymatic pre-treatment of the tissue was done prior to mechanical dissociation by incubating the tissues in sterile NeuroPapain enzyme solution at 30° C. for 30 minutes. Following incubation, the cells were centrifuged and transferred to fresh plating medium, where they were then dissociated into isolated neurons using a P-1000 pipettor with a sterile 1 ml plastic tip (0.8-1.0 mm diameter opening). The cells were again centrifuged and seeded in multi-well plates pre-coated with poly-D-lysine (0.15 ml/cm^2, 50 μg/ml) and maintained at 37° C. in a humidified 5% CO2 atmosphere. All experiments were performed after 9-10 days in culture. Twenty-four hours before glutamate exposure, cultures were pre-treated with both PROG (Cat. #P3972; Sigma Aldrich, St. Louis, Mo., USA) and VDH(Cat. #D1530; Sigma) separately or in combination with VDH at various concentrations. Stock solutions of PROG and VDH were prepared in dimethylsulfoxide (DMSO; Cat. #D2650; […] Glutamate was diluted in phosphate-buffered saline (PBS, pH 7.4). All reagents were filter sterilized before being added to cultures. At Day 11, cortical neurons in fresh media were separated into five treatment groups: (i) control; (ii) 24 hour treatment with 0.5 μM glutamate (Sribnick E A, et al., (2004) J Neurosci Res 76: 688-696); ([…]) with subsequent exposure to glutamate for 24 hours; (iv) 24 hour pre-treatment with VDH (1, 5, 10, 20, 40, 80, 100 nM) with subsequent exposure to glutamate for 24 hours; (v) 24 hour pre-treatment with different combinations of PROG and […]: 20 μM+VDH: 1, 5, 10, 20, 40, 80, 100 nM) with subsequent exposure to glutamate for 24 hours. Two widely accepted assays (LDH release and MTT reduction assay) for the measurement of cell viability were used. These assays are considered very reliable and reproducible with high predictive validity and are widely used in various pharmacological studies ([…], et al., (2002) Endocrinology 143: 205-212.). The LDH assay was performed as follows. […] LDH activity was measured using a Cytotoxicity Detection Kit (Roche Molecular Biochemicals, Indianapolis, Ind., USA) and quantitated by measuring absorbance at 490 nm. Data were normalized against the amount of LDH activity released from vehicle-treated control cultures receiving no glutamate. Neuronal death was also assessed by MTT [3-(4,5-dimethylthiazol-2-yl)-2,5-diphenyltetrazolium bromide] assay, which is based on the cleavage of the tetrazolium ring of the pale yellow MTT into dark blue formazan crystals by mitochondrial dehydrogenase enzyme in viable cells. These blue formazan crystals accumulate within the cells due to their impermeability to cell membrane, and are then solubilized by adding DMSO. The intensity of blue colored formazan solution is directly proportional to the number of surviving cells. Concentrations were determined by photometric analysis. Briefly, 10 μl of MTT were added per well and incubated at 37° C. for 4 hours until purple precipitate was visible. DMSO (50 μl) was added to solubilize the crystals and the absorbance was read at 570 nm.

MAPK (ERK1/2) = experiment: MAPK phosphorylation (p-ERK1/2 Western blot) in primary cortical neurons; assay type: cell-based, rat; details: PROG 20 μM, 30-minute treatment
Experimental: PROG and VDH were added to the primary cultures, as described above, for 30 minutes ([…], et al., (2002) Endocrinology 143: 205-212) and the cells were lysed using RIPA lysis buffer kit (sc-24948, Santa Cruz, Calif., USA). Protein was determined in cell lysates by bicinchoninic acid (BCA) protein assay (Cat. # 23225, Pierce, Rockford, Ill., USA). Cell lysates (40 μg protein each sample) were separated under reducing and denaturing conditions by 12.5% acrylamide Criterion gel (BioRad, Hercules, Calif., USA) at 200V for 1 hour and transferred to a polyvinylidene difluoride (PVDF) membrane at 100V for 30 minutes. The non-specific binding sites of the membrane were blocked with 5% non-fat dry milk in PBS-T (phosphate buffered saline containing 0.05% Tween-20). […] Membranes were then incubated in horseradish peroxidase (HRP)-conjugated secondary antibody (Goat anti-rabbit IgG; 074-1506, KPL, Gaithersburg, Md., USA). β-actin was probed as a loading control. Blots were developed using a chemiluminescent substrate (Pierce) for 5 minutes.

[2] = tested on: 20-month-old male Fischer 344 rats; experiment: Spontaneous locomotor activity (open field) after TBI; assay type: in vivo, rat; details: 72 hours after injury; normalized to sham
From the text: The animals in this study were separated into two groups, vitamin D normal (D-normal) and vitamin D deficient (D-deficient). […] Animals in the D-deficient group were maintained on the diet for at least 21 days prior to surgery. […] For this same reason the null diet was not altered in any other way, and the rats assigned to the D-deficient group were maintained on it until they were killed for harvesting of brain tissue. Since vitamin D is activated by UVB light (280-315 nm wavelength), the overhead lights were modified to not produce radiation in this range.
Animals dehydrated due to blood loss were given 3 mL of lactated Ringer's solution subcutaneously within 6 hours of injury.
Animals were assigned to D-normal or D-deficicnt groups. […] The same assignment was followed for both 24-hour and 72-hour survival groups. […] All drug treatments were dissolved in vehicle, and injection volume was equally proportional to each animal's weight across all groups. The intact sham (SHAM) groups served to provide baseline data and therefore received no injury or injections.
In addition to molecular measures of inflammatory cytokines, the behavioral effects of the various treatments were examined. Since this study was limited to the short term effects on inflammation, only short-term Spontaneous Locomotor Activity was used.

[3] = tested on: moderate to severe TBI patients; details: cited from earlier work

CC(=O)[C@H]1CCC2C3CCC4=CC(=O)CC[C@]4(C)C3CC[C@@]21C (stereo partly shown) [progesterone]
best (most effective) concentration alone against glutamate-induced neuronal death ([1]; LDH and MTT assays): 20 µM | glutamate-induced cell death compared to vehicle-only group ([1]; PROG at higher concentrations (10, 20, 40, and 80 μM), LDH and MTT assays, P<0.001): significant reduction | glutamate-induced cell death compared to vehicle-only group ([1]; PROG at lower concentrations (0.01, 0.1, 1, 5 μM), 24 h pre-treatment, glutamate 0.5 μM 24 h): did not show any decrease in cell death | increase in p-ERK1/2 level compared to control group (MAPK (ERK1/2)): 2 × | spontaneous locomotor activity (total distance, resting, stereotypy, movement time) [2]: little or no benefit | reduction of mortality ([3]; 3 days of intravenous treatment, 100 patients): over 60% | functional outcomes ([3]; 30 days post-injury): significantly improved functional outcomes
